Like-named read-outs stand apart in the source and are kept apart here.
What was measured:
[1] = tested on: DMG cell lines including primary BXdmg1 cells; assay: DMG spheroid formation assay; type: cell-based, human; conditions: 24 hours; GSK-126 20 μM for NEM157i and 15 μM for the others
Description: For spheroid formation assays, 10^4 cells were used per well in a 96-well plate. Volume of methylcellulose/medium/cells and inhibitors (10, 15 or 20 μM) mixture per well was 100 μL with a final concentration of methylcellulose at 0.5%. After rapid and gentle homogenization, the mixture was placed on a round-bottom cell culture microplate (U-shaped) treated to limit cell adhesion. After, spheroids were incubated in an incubator at 37° C. and 5% CO2 for 24 hours. Photos and films of spheroids were taken by an InCellis cell imager (Bertin instruments, Montigny-le-bretonneux, France).

Huh6 and HepG2 cells [2] = assay: Lipid droplets assay in hepatoblastoma cells; type: cell-based, human
Description: The cells were plated in 6-well plate at a density of 250,000 cells per well. […] After 48 hours of treatment, the cells were fixed in 4% PFA for 15 minutes then stained with the red oil for 15 minutes at room temperature. Finally, cells were washed several times and scanned using InCellis microscope (Bertin Technologies, France).

[3] = tested on: patients with relapsed/refractory solid tumors and hematologic malignancies; conditions: cited from earlier work
[4] = tested on: HMGCS, HMGCR, LDLR, NPC1 and SQLE; assay: RT-qPCR and Western blot of lipid and cholesterol synthesis genes in DIPG cells; type: cell-based, human; conditions: GSK-126 at IC50 of each cell line
Description: Cell lysates were prepared by scraping cells using RIPA buffer (Sigma Aldrich) plus proteinase inhibitors (Sigma Aldrich) and centrifuged at 13000 g for 15 min at 4° C. Protein concentrations were measured using Pierce™ BCATM Protein Assays (ThermoFisher) and equal amounts of cell extracts were loaded for western blot analysis in 4-15% precasted polyacrylamide gel (Bio-Rad). Proteins were blotted on a nitrocellulose membrane (Transblot® Turbo midi-size, Bio Rad), blocked with the Odyssey blocking buffer (LI-COR Biosciences, ScienceTec, Les Ulis, France) or with BSA diluted in Tris-buffered saline with 0.1% Tween 20 (TBST) and probed with primary antibodies overnight at 4° C. […] Quantification was performed using ImageJ (National Institutes of Health, Bethesda, Maryland, USA).
Total RNA was isolated from cell lines with the TRI Reagent (Sigma) following manufacturer's instructions. For quantification of messenger RNA (mRNA) expression, total RNA was retrotranscribed using the Maxima Reverse Transcriptase (Thermo Scientific). […]

xenopus embryos = assay: Toxicological assay in Xenopus embryos; type: in vivo; conditions: treated from gastrula stage
Description: Embryos were left in solution until untreated control embryos reached stage 41.

HepG2 cells = assay: Cell viability assay (CellTiter 96 AQueous One / MTS) in HepG2; type: cell-based, human
Description: For 2D culture, a total of 2,000 cells/well for Huh6 and 3,000 cells/well for HepG2 were seeded in 96-well microtiter plates. Cell growth was measured at 24 h, 48h, 72h or 96h after genetic manipulation and at 48h or 72h after drug treatment using the in vitro MTS assay Kit or Sulforhodamine B (SRB, Absorbance at 565 nm) assay (Sigma) following manufacturer's instructions. For 3D culture, spheroids were formed as described above and microplates were incubated in an IncuCyte® S3 live cell analysis system and scanned every 8 hours. For genetic manipulation, the lentiviral transductions or the gene depletions were done before the plating. For drug treatments, depending on the experiment and the drug, spheroids were treated at day 4 or 5 for 48h or 72h. Cell viability assay in spheroids was done using 1 μM calcein AM (BioLegend) and 2 μM ethidium homodimer 1 (Sigma) for 30 minutes at 37° C. Spheroids were imaged using an IncuCyte® S3 live cell analysis system. For all cell viability assays, drugs were used at half maximal inhibitory concentration (IC50).

BXdmg1 primary cells = assay: Proliferation assay in primary DMG cells BXdmg1; type: cell-based, human
Description: Cell growth was measured with the In vitro Toxicology Assay kit (Sulforhodamine B, Sigma Aldrich, Saint Quentin Fallavier, France) according to manufacturer's instructions. Cells were plated at a density of 2000 cells per well in 96-well plates in triplicates. Absorbance was measured at 565 nm using the CLARIOstar multiplate reader (BMG Labtech, Champigny-sur-Marne, France) at indicated time points.
A DMG biopsy was received in the laboratory and dissociated using GentleMACs cell separator (Miltenyi Biotech, Paris, France) within 24h using MACSBrain Tumor Dissociation Kit (Miltenyi Biotech, Paris, France) and the standard GentleMACs brain tissue separation program. Cells yielded were cultivated in Amniomax C100SUP plus Amniomax C100 basal medium (Gibco, ThermoFisher, Illkirch Cedex, France). Molecular and cellular analysis of the biopsy were detailed in FIG. 7 (see Rahal, F., C. Capdevielle, B. Rousseau, J. Izotte, J. W. Dupuy, D. Cappellen, G. Chotard, M. Menard, J. Charpentier, V. Jecko, C. Caumont, E. Gimbert, C. F. Grosset and M. Hagedorn (2022). “An EZH2 blocker sensitizes histone mutated diffuse midline glioma to cholesterol metabolism inhibitors through an off-target effect.” Neurooncol Adv 4 (1): vdac018).

Huh6 and HepG2 cells [5] = assay: Clonogenicity assay; type: cell-based, human; conditions: GSK-126 3 and 4 μM for Huh6 and HepG2; ATR 8 μM; SIM 4 μM; 10 days
Description: Huh6 and HepG2 cells were seeded at 500 and 1000 cells/well respectively in 12-well plates. After attachment, cells were treated with drugs.
Following incubation at 37° C. for 10 days, the cells were fixed with 4% PFA and stained with 0.05% crystal violet. Reading under the Fusion FX (Vilber Lourmat).

For `CC[C@H](C)n1cc(C)c2c(C(=O)NCc3c(C)cc(C)[nH]c3=O)cc(-c3ccc(N4CCNCC4)nc3)cc21` [GSK-126, 1-[(2S)-butan-2-yl]-N-[(4,6-dimethyl-2-oxo-1H-pyridin-3-yl)methyl]-3-methyl-6-[6-(1-piperazinyl)-3-pyridinyl]-4-indolecarboxamide], the spheroid formation [1] is listed as “spheroid formation was affected”, the synthesis of lipids (Huh6 and HepG2 cells [2]) is listed as “triggered” and the clinical activity ([3]; at the MTD) is listed as “inadequate clinical activity”. The half-life ([3]; human, in vivo) was “relatively short”, the “maximum tolerated dose (MTD)” value ([3]; twice weekly intravenous, 28 days (3 weeks on/1 week off)) was 2,400 mg and the “expression of HMGCS, HMGCR, LDLR, NPC1 and SQLE genes, and HMGCR and SQLE proteins” value [4] was “induced”. For the same molecule, the “toxic dose in xenopus embryos” value (xenopus embryos) was 1 mM, the IC25 dose (HepG2 cells) was 4 µM and the IC50 (HepG2 cells; Homo sapiens) was 8 µM. For the same molecule, the IC50 (BXdmg1 primary cells) was 10.4 µM, the IC50 (BXdmg1 primary cells; Homo sapiens) was about 10 µM and the “proliferation and survival of hepatoblastoma cells (clonogenic cell assay)” value (Huh6 and HepG2 cells [5]) was “little effect”.
